Test results reported in patent US8013153B2, “Substituted pyrimidine kinase inhibitors” (Janssen Pharmaceutica, N.V., priority 2006, dated 2011).
“Also recorded” adds a separate entry of the source.

How the values were obtained:
[1] = molecular target: T1, CDK1:Cyclin-B (Homo sapiens, UniProt P06493); assay: CDK1 Screening Assay; type: biochemical
T1 construct: purchased New England Biolabs, Beverly, Mass; 6020; host or cells: insect cells

[2] = system: HeLa cervical adenocarcinoma; assay: Inhibition of in vitro cell proliferation (HeLa); type: cell-based, human; settings: Homo sapiens, 14C-thymidine incorporation;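 note: cells exposed to compound for 24 h, then labelled 24 h with methyl 14C-thymidine, with uptake into DNA counted by scintillation against DMSO-only control wells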
[3] = system: HCT-116 colon carcinoma; assay: Inhibition of in vitro cell proliferation (HCT116); type: cell-based, human; settings: Homo sapiens, HCT-116, 14C-thymidine incorporation;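 note: cells exposed to compound for 24 h, then 14C-thymidine added for a further 24 h and its uptake into DNA counted by scintillation, DMSO-only wells as control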
[4] = system: A431 human epidermoid carcinoma; assay: In vivo inhibition of tumor growth, A431 model; design: species or system athymic nude mice; settings: 10 mg/kg daily, oral
Source text: (§1) Female Nu/Nu˜nuBR athymic nude mice (obtained from Charles River Laboratories), at the age of 5-6 weeks were feed water and an irradiated standard rodent diet ad libitum, and housed in specific pathogen-free conditions, according to the guidelines of the American Association for Accreditation of Lab Animal Care (AALAC).
(§2) Mice were implanted subcutaneously in the right hind flank with the various tumor cell suspensions in HBSS containing 10% FBS: A431 human epidermoid carcinoma (4×10^6 cells/mouse), HCT116 human colorectal carcinoma (4×10^6 cells/mouse) and A375 human skin melanoma (2×10^6 cells/mouse). […]
(§3) The tumors were allowed to establish growth for 10 to 14 days. Tumor size was measured every 3 days. […]
(§4) Tumor measurements and body weights were recorded individually (2×/week) during the treatment period of the experiment. Tumors were measured using a digital caliper. Data was recorded/calculated using Study Director software (StudyLog Systems, Inc.) and graphs were created in GraphPad Prizm.
(§5) The volume of each tumor in an animal was calculated according to the formula: (D×d^2)/2, where the diameters were determined from two orthogonal measurements on each tumor. The mean tumor volume was determined by averaging all tumor volumes in each group. The mean body weight was determined by averaging all body weights in each group. […]

[5] = system: HCT116 human colorectal carcinoma; assay: In vivo inhibition of tumor growth, HCT116 model; design: species or system athymic nude mice; settings: 10 mg/kg daily, oral
Source text: as §1, §2, §3, §4, §5

[6] = system: A375 human skin melanoma; assay: In vivo inhibition of tumor growth, A375 model; design: species or system athymic nude mice
Source text: as §1
Mice were implanted subcutaneously in the right hind flank with the various tumor cell suspensions in HBSS containing 10% FBS: A431 human epidermoid carcinoma (4×10^6 cells/mouse), HCT116 human colorectal carcinoma (4×10^6 cells/mouse) and A375 human skin melanoma (2×10^6 cells/mouse).
The A431 epidermoid carcinoma cell line was chosen due to its ability to secrete VEGF in culture and its dependency on VEGF for angiogenesis and growth in vivo (Viloria-Petit A, Crombet T, Jothy S, et al. (2001) Cancer Res 61: 5090-5101). The HCT116 colon carcinoma cell line is dependent on the expression of VEGF to form tumors in nude mice (Okada F, Rak J, St. Croix B, et al. (1998) Proc Natl Acad Sci USA 95: 3609-3614). […]
In the A375 model, Compound 50 was administered at 100 mg/kg, qd. Treatment ended after 28 days, then tumor growth delay was analyzed to day 60.
as §3, §4
(§6) The volume of each tumor in an animal was calculated according to the formula: (D×d^2)/2, where the diameters were determined from two orthogonal measurements on each tumor. The mean tumor volume was determined by averaging all tumor volumes in each group. The mean body weight was determined by averaging all body weights in each group.
The standard deviation was calculated according to the formula (where x was the tumor volume): [Σx^2−((Σx)2/n)]/n−1 […]

[7] = In vivo tumor xenograft models overall (tolerability, body weight, plasma levels)
Procedure: as §1, §4, §6

[8] = molecular target: tyrosine kinase KIT (Homo sapiens, UniProt P10721); assay: KIT Kinase Screening Assay
Sequence of tyrosine kinase KIT (P10721 26-976): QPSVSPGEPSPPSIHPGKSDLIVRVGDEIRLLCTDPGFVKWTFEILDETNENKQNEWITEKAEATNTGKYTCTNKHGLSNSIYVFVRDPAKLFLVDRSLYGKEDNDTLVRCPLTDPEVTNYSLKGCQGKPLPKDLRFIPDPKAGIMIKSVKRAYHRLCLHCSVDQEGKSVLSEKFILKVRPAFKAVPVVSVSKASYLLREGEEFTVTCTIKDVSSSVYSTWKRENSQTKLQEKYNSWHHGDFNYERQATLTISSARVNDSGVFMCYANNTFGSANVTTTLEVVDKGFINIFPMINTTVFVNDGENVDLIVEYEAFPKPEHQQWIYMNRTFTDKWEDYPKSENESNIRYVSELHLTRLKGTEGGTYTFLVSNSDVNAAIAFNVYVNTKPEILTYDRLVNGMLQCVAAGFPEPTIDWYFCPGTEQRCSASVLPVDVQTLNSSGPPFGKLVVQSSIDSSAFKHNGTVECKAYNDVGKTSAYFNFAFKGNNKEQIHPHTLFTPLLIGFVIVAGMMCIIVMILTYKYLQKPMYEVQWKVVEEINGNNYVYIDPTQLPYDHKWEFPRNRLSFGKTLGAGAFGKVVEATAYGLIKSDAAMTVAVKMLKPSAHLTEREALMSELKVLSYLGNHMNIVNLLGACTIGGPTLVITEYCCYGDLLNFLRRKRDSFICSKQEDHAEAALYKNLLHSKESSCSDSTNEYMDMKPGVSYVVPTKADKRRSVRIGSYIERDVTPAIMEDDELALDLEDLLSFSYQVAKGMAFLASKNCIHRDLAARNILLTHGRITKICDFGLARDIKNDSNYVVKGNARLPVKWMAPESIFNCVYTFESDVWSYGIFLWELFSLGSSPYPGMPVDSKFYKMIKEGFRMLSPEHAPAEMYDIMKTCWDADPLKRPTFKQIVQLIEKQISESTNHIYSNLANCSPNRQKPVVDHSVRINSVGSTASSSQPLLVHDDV

[9] = molecular target: V600E Raf mutant (Homo sapiens, UniProt P15056, V600E); assay: RAF Kinase Screening Assay (V600E Raf mutant); settings: Compound 50 tested at 30 μM
Sequence of V600E Raf mutant (P15056 whole entry V600E): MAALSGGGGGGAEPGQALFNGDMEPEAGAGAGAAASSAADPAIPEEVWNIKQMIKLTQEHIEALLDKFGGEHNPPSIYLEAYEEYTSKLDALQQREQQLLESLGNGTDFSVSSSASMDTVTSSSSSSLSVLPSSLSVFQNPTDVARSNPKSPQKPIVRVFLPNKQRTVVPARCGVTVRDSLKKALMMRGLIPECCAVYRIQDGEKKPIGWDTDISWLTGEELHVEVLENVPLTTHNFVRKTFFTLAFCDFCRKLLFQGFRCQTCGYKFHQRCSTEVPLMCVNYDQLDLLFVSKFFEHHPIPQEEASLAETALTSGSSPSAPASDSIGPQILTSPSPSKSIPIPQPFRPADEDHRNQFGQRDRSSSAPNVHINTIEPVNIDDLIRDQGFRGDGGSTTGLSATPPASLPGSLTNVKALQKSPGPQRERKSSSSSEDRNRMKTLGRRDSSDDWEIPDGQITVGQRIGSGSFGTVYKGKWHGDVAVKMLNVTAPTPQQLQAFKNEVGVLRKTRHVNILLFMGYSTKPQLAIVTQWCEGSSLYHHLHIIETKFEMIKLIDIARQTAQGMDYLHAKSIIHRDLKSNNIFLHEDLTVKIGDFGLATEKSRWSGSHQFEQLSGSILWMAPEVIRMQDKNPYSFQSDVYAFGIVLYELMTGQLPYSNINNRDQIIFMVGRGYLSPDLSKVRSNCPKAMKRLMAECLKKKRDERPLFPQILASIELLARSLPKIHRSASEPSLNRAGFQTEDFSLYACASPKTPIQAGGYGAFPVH

[10] = 100 mg/kg daily, 24-28 days of treatment
[11] = A431 and HCT116 models, continuous administration for 24 days

T1 sequence (P06493 whole entry): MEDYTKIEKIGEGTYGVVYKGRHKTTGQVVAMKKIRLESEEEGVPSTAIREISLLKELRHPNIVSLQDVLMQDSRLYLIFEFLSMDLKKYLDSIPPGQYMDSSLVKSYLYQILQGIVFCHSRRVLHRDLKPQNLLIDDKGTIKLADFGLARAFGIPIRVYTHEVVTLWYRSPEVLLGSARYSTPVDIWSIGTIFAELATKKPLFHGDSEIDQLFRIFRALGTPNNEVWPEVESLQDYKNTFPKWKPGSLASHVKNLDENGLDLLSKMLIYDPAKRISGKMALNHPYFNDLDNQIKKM
T1 sequence (P14635 whole entry partner): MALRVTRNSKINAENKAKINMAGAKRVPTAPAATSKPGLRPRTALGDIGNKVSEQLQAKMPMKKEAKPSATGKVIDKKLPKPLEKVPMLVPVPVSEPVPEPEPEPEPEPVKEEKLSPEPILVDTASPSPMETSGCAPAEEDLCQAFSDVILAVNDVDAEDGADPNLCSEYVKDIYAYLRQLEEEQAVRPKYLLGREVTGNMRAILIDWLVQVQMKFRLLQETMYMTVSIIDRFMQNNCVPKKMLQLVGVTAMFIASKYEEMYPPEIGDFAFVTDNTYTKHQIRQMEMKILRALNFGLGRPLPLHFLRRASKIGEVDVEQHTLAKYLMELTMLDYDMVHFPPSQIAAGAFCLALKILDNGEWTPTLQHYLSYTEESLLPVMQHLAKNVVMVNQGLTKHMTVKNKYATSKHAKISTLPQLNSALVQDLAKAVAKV

SMILES: CCNC(=O)Nc1ccc(Oc2ncnc(N)c2/C=N/OC)cc1Cl [Cpd 50, 1-{4-[6-amino-5-(methoxyimino-methyl)-pyrimidin-4-yloxy]-2-chloro-phenyl}-3-ethyl-urea]
- IC50 [1]: > 100 µM
- IC50 [2]: 3.57 µM
- IC50 [3]: 3.7 µM
- inhibition of tumor growth [4]: < 50%
- inhibition of tumor growth [5]: < 50%
- tumor growth delay maintained after completion of treatment ([6]; 100 mg/kg qd for 28 days): 3 weeks
- body weights of treated animals ([6]; 28 days of continuous dosing, 100 mg/kg): comparable to the control group
- inhibition of growth ([6]; daily doses of 100 mg/kg, oral, 28 days): 90%
- inhibition in tumor xenograft models ([7]; 10 mg/kg qd): 28-48%
- plasma levels ([7]; 100 mg/kg daily dosing schedule, oral, mice): 20 µM
- body weight [7, 10]: no reduction of body weight
- tolerability [7, 10]: well-tolerated
- treatment-related deaths [7, 10]: no treatment-related deaths
- body weights [7, 11]: comparable with control animals
- tolerability [7, 11]: well tolerated
- IC50 [8]: 0.5 µM
- activity against the V600E Raf mutant [9]: no activity; also recorded: not active
